Earlier results as cited in patent US20220273645A1, “NALTREXONE FORMULATION” (INTAS PHARMACEUTICALS LTD., priority 2019, published 2022).

Key:
[1] = test system: children with moderate to severe Crohn's disease; conditions: sole therapy in children with moderate-to-severe Crohn's disease
Crohn's disease = conditions: low dose; versus other standard therapy

O=C1CC[C@@]2(O)[C@H]3Cc4ccc(O)c5c4[C@@]2(CCN3CC2CC2)[C@H]1O5 [low dose naltrexone, (4R,4aS,7aR,12bS)-3-(cyclopropylmethyl)-4a,9-dihydroxy-2,4,5,6,7a,13-hexahydro-1H-4,12-methano benzofuro[3,2-e]isoquinoline-7-one]
tolerability / serious adverse events [1]: well tolerated without any serious adverse events | safety and effectiveness for the treatment of Crohn's disease (Crohn's disease): safe, effective
